These results are taken from US10160755B2 (Plexxikon Inc., priority 2015, dated 2018).

The target in one assay is T1, FLT3-D835Y (Homo sapiens, UniProt P36888, D835Y).
T1 construct: purchased Invitrogen PV3967
T1 sequence (P36888 27-993 D835Y): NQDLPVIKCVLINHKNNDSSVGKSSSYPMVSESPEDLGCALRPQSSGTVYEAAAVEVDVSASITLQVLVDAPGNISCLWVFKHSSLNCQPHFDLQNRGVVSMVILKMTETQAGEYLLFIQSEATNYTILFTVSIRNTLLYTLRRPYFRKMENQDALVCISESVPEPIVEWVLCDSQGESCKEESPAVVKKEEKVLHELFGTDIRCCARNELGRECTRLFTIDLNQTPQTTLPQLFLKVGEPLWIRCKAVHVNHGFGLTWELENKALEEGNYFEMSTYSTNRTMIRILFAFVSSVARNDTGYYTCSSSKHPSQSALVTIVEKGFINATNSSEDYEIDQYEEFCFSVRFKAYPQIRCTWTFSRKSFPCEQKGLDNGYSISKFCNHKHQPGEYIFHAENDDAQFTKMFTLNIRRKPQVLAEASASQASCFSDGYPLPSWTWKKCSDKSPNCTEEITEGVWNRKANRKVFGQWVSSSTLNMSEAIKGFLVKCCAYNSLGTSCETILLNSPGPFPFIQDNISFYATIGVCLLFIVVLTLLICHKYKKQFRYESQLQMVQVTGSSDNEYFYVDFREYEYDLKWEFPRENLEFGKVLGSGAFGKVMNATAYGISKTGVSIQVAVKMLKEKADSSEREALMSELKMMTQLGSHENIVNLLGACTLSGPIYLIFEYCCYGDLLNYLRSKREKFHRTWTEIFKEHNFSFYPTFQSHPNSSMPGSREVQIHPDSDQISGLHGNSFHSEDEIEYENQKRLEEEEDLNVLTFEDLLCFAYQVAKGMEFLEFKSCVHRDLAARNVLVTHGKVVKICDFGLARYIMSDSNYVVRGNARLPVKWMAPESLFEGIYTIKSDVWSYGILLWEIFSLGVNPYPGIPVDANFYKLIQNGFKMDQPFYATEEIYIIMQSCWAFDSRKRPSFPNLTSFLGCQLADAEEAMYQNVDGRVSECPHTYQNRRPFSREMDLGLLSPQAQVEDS
Description: FLT3-D835Y biochemical kinase assay (AlphaScreen). In short, it runs like this: (§1)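 Read-out is AlphaScreen at 580 nm, where reduced substrate tyrosine phosphorylation lowers bead proximity signal. Reactions contain 30 nM biotinylated poly(Glu4-Tyr) and ATP at 10 μM (D835Y) or 100 μM (ITD); PY20 acceptor beads 10 μg/mL final, 60 min at room temperature before reading.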
For orientation: In Alpha technology, singlet oxygen from a donor bead excites a nearby acceptor bead.

The next assay deals with c-Kit (Homo sapiens, UniProt P10721). Put plainly: c-Kit biochemical assay (per US 2007/0032519). The gist of the method:
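Biochemical kinase inhibition run per US 2007/0032519; values reported as binned IC50 ranges (0.0001–1 μM, 1–10 μM, 10–200 μM).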

A further assay concerns the target T2, FLT3-ITD (Homo sapiens, UniProt P36888).
T2 construct: FLT3-ITD; Invitrogen #PV6190
T2 sequence (P36888 1-993): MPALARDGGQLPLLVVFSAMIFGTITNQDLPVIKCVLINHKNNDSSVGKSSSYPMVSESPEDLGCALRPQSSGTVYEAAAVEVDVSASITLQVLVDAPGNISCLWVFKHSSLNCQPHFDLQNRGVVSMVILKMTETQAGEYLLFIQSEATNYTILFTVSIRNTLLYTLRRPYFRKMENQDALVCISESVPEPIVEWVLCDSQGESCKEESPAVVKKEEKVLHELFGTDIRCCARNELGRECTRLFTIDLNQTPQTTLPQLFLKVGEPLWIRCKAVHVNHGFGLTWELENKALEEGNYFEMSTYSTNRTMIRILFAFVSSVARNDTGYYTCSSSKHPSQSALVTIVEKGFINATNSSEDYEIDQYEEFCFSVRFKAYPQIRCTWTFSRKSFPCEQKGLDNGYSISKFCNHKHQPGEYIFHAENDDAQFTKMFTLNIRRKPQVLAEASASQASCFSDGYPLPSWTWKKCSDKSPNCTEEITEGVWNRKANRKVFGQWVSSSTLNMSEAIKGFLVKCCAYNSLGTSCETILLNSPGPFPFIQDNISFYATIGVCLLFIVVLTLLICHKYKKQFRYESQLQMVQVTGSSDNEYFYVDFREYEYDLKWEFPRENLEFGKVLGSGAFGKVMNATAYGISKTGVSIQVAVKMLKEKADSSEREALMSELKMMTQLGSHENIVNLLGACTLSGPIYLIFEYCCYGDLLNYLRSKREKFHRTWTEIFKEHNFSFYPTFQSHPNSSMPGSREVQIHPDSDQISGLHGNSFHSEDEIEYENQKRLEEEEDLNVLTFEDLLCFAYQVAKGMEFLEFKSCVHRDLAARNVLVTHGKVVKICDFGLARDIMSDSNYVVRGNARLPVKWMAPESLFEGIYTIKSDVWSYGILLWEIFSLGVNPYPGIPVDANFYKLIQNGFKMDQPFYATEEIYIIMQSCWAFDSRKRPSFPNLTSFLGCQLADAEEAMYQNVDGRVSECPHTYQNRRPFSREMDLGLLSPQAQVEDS
Put plainly: FLT3-ITD biochemical kinase assay (AlphaScreen). In short, it runs like this:
as §1

Chain of c-Kit (P10721 26-976): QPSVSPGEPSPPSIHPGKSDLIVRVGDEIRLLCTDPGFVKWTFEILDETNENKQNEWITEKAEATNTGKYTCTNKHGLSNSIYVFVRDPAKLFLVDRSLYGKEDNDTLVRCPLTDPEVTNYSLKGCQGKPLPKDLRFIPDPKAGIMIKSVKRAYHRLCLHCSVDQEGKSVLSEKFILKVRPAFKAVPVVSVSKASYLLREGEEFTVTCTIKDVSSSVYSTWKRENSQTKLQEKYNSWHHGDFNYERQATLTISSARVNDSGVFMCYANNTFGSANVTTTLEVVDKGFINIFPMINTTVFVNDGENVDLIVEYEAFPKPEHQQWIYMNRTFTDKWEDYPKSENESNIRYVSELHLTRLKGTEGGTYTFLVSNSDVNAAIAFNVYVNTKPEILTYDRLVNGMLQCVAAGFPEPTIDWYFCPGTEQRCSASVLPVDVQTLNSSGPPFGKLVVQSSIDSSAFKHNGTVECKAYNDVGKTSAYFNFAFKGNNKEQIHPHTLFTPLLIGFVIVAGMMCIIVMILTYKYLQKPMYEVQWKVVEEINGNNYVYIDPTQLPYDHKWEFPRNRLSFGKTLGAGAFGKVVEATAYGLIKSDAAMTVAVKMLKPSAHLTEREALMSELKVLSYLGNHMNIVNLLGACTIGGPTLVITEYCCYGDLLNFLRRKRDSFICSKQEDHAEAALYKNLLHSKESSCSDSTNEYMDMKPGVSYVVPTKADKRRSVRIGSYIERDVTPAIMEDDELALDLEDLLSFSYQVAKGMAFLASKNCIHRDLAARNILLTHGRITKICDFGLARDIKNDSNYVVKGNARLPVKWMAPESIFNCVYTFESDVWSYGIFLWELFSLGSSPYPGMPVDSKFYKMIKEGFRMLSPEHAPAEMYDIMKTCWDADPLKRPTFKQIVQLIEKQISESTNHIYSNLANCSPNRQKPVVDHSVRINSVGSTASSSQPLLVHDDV

Regarding `CC(C)(C)n1cnc2ccc(-c3c[nH]c4ncc(-c5ccnc(F)c5)nc34)cc21` [P-384, 7-(3-tert-butylbenzimidazol-5-yl)-2-(2-fluoro-4-pyridyl)-5H-pyrrolo[2,3-b]pyrazine], the IC50 against FLT3-D835Y, against c-Kit and against FLT3-ITD was 0.0001 to 1 µM in each case.

For `CC(C)(C)n1cnc2ccc(-c3c[nH]c4ncc(-c5cnc(C(N)=O)c(Cl)c5)nc34)cc21` [P-364, 5-[7-(3-tert-butylbenzimidazol-5-yl)-5H-pyrrolo[2,3-b]pyrazin-2-yl]-3-chloro-pyridine-2-carboxamide], the IC50 against FLT3-D835Y was in the range of 0.0001 to 1 µM; against c-Kit it was 1 to 10 µM; on FLT3-ITD, 0.0001 to 1 µM.

With `Cn1cnc2ccc(-c3c[nH]c4ncc(C5=CCN(C(=O)C6CC6)C5)cc34)cc21` [P-130, cyclopropyl-[3-[3-(3-methylbenzimidazol-5-yl)-1H-pyrrolo[2,3-b]pyridin-5-yl]-2,5-dihydropyrrol-1-yl]methanone], the IC50 against FLT3-D835Y lay in the range of 0.0001 to 1 µM; at c-Kit it was 10 to 200 µM; at FLT3-ITD it was 0.0001 to 1 µM.

With `COc1cnc2[nH]cc(-c3ccc4ncn(C5CCCC5)c4c3)c2c1` [P-049, 1-cyclopentyl-6-(5-methoxy-1H-pyrrolo[2,3-b]pyridin-3-yl)benzimidazole], the IC50 on FLT3-D835Y is 0.0001 to 1 µM; at c-Kit, 1 to 10 µM; against FLT3-ITD it was 0.0001 to 1 µM.

In the case of `O=C(C1CC1)N1CC=C(c2cnc3[nH]cc(-c4ccc5[nH]cnc5c4)c3c2)CC1` [P-017, [4-[3-(1H-benzimidazol-5-yl)-1H-pyrrolo[2,3-b]pyridin-5-yl]-3,6-dihydro-2H-pyridin-1-yl]-cyclopropyl-methanone], the IC50 on FLT3-D835Y lay within 0.0001 to 1 µM; against c-Kit, 1 to 10 µM; on FLT3-ITD, 0.0001 to 1 µM.

On to `CC1(COc2cnc3[nH]cc(-c4ccc5[nH]cnc5c4)c3c2)COC1` [P-008, 3-(1H-benzimidazol-5-yl)-5-[(3-methyloxetan-3-yl)methoxy]-1H-pyrrolo[2,3-b]pyridine], for which the figures for the IC50 on FLT3-D835Y, against c-Kit and at FLT3-ITD were 1 to 10 µM, 1 to 10 µM and 0.0001 to 1 µM, respectively.

In the case of `Cn1cnc2ccc(-c3c[nH]c4ncc(-c5cccc(S(=O)(=O)N6CCCC6)c5)cc34)cc21` [P-122, 1-methyl-6-[5-(3-pyrrolidin-1-ylsulfonylphenyl)-1H-pyrrolo[2,3-b]pyridin-3-yl]benzimidazole], the figures for the IC50 at FLT3-D835Y, against c-Kit and against FLT3-ITD were 0.0001 to 1 µM, 1 to 10 µM and 0.0001 to 1 µM, respectively.

For the molecule `CC(C)N1CCOc2ccc(-c3c[nH]c4ncc(-c5cccc(NS(C)(=O)=O)c5)nc34)cc21` [P-086, N-[3-[7-(4-isopropyl-2,3-dihydro-1,4-benzoxazin-6-yl)-5H-pyrrolo[2,3-b]pyrazin-2-yl]phenyl]methanesulfonamide], the IC50 against FLT3-D835Y was in the range of 0.0001 to 1 µM; against c-Kit, 10 to 200 µM; against FLT3-ITD it was 0.0001 to 1 µM.

Take `COc1cc(-c2cnc3[nH]cc(-c4ccc5ncn(C)c5c4)c3c2)ccc1Cl` [P-092, 5-(4-chloro-3-methoxy-phenyl)-3-(3-methylbenzimidazol-5-yl)-1H-pyrrolo[2,3-b]pyridine]: the IC50 against FLT3-D835Y, against c-Kit and against FLT3-ITD was 0.0001 to 1 µM each time.

On to `COc1cc(-c2cnc3[nH]cc(-c4ccc5ncn(C)c5c4)c3c2)ccc1C#N` [P-117, 2-methoxy-4-[3-(3-methylbenzimidazol-5-yl)-1H-pyrrolo[2,3-b]pyridin-5-yl]benzonitrile], for which the 50% inhibitory concentration (IC50) at FLT3-D835Y is 0.0001 to 1 µM; at c-Kit, 1 to 10 µM; at FLT3-ITD, 0.0001 to 1 µM.

Consider `COc1cnc2[nH]cc(-c3cnc4c(c3)ncn4C)c2c1` [P-055, 6-(5-methoxy-1H-pyrrolo[2,3-b]pyridin-3-yl)-3-methyl-imidazo[4,5-b]pyridine], for which the values for the IC50 on FLT3-D835Y, on c-Kit and against FLT3-ITD were 10 to 200 µM, 10 to 200 µM and 0.0001 to 1 µM, respectively.

Consider `Fc1cnc2[nH]cc(-c3ccc4nc[nH]c4c3)c2c1` [P-022, 3-(3H-benzimidazol-5-yl)-5-fluoro-1H-pyrrolo[2,3-b]pyridine], for which the IC50 against FLT3-D835Y is 1 to 10 µM; against c-Kit, 10 to 200 µM; at FLT3-ITD, 1 to 10 µM.

On to `COc1cnc2[nH]cc(-c3ccc4[nH]c(C)nc4c3)c2c1` [P-015, 5-methoxy-3-(2-methyl-1H-benzimidazol-5-yl)-1H-pyrrolo[2,3-b]pyridine], for which the figures for the IC50 against FLT3-D835Y, at c-Kit and against FLT3-ITD were 1 to 10 µM, 10 to 200 µM and 0.0001 to 1 µM, respectively.

`CC(=O)Nc1cccc(-c2cnc3[nH]cc(-c4ccc5ncn(C)c5c4)c3c2)c1` [P-116, N-[3-[3-(3-methylbenzimidazol-5-yl)-1H-pyrrolo[2,3-b]pyridin-5-yl]phenyl]acetamide]: the half-inhibitory concentration (IC50) on FLT3-D835Y lay in the range of 0.0001 to 1 µM; against c-Kit it was 1 to 10 µM; on FLT3-ITD it was 0.0001 to 1 µM.

For `Cn1cnc2ccc(-c3c[nH]c4ncc(-c5ccc(S(=O)(=O)N6CCCC6)cc5)cc34)cc21` [P-091, 1-methyl-6-[5-(4-pyrrolidin-1-ylsulfonylphenyl)-1H-pyrrolo[2,3-b]pyridin-3-yl]benzimidazole], the IC50 at FLT3-D835Y, against c-Kit and on FLT3-ITD was 0.0001 to 1 µM throughout.

With `CC(C)S(=O)(=O)Nc1cccc(-c2cnc3[nH]cc(-c4ccc5ncn(C)c5c4)c3c2)c1` [P-096, N-[3-[3-(3-methylbenzimidazol-5-yl)-1H-pyrrolo[2,3-b]pyridin-5-yl]phenyl]propane-2-sulfonamide], the IC50 at FLT3-D835Y is 0.0001 to 1 µM; on c-Kit, 1 to 10 µM; against FLT3-ITD, 0.0001 to 1 µM.

As to `Cn1cnc2ccc(-c3c[nH]c4ncc(-c5cccc(OC(F)(F)F)c5)cc34)cc21` [P-131, 1-methyl-6-[5-[3-(trifluoromethoxy)phenyl]-1H-pyrrolo[2,3-b]pyridin-3-yl]benzimidazole], the IC50 on FLT3-D835Y was in the range of 0.0001 to 1 µM; against c-Kit, 10 to 200 µM; against FLT3-ITD, 0.0001 to 1 µM.

As to `Nc1nc2cc(-c3c[nH]c4ncccc34)ccc2[nH]1` [P-010, 5-(1H-pyrrolo[2,3-b]pyridin-3-yl)-1H-benzimidazol-2-amine], the values for the IC50 against FLT3-D835Y, against c-Kit and at FLT3-ITD were 1 to 10 µM, 10 to 200 µM and 1 to 10 µM, respectively.

`N#Cc1cnc2[nH]cc(-c3ccc4nc[nH]c4c3)c2c1` [P-023, 3-(3H-benzimidazol-5-yl)-1H-pyrrolo[2,3-b]pyridine-5-carbonitrile]: the IC50 against FLT3-D835Y lay in the range of 1 to 10 µM; on c-Kit, 1 to 10 µM; at FLT3-ITD, 0.0001 to 1 µM.

Consider `CS(=O)(=O)Nc1cccc(-c2cnc3[nH]cc(-c4ccc5c(c4)OC(F)(F)O5)c3n2)c1` [P-064, N-[3-[7-(2,2-difluoro-1,3-benzodioxol-5-yl)-5H-pyrrolo[2,3-b]pyrazin-2-yl]phenyl]methanesulfonamide], for which the IC50 lay within 1 to 10 µM at FLT3-D835Y, 10 to 200 µM against c-Kit and 1 to 10 µM at FLT3-ITD.

Broadly, the IC50 is the concentration that inhibits the measured activity by half.
